{"source": "patent US20160346249A1", "about": "(priority 2012, published 2016)", "key": {"[1]": {"experiment": "13-week mouse toxicity and toxicokinetic study", "details": "in vivo; for AUC(0-t): AUC0-24", "protocol": "For toxicology assessment ten mice of each gender were placed in each group.\nOphthalmic examinations were performed during Weeks −1 and 12."}, "[2]": {"experiment": "26-week rat toxicity and toxicokinetic study", "format": "in vivo", "details": "for Tmax / AUC(0-t) / Cmax: po; for AUC(0-t): read-out: AUC0-24; for mean body weight lower than control: end of 4-week recovery; for mean cumulative body weight gain lower: end of treatment", "protocol": "A portion of the animals from each group was maintained for an additional 4-week post-treatment recovery period.\nFor toxicology assessment, groups comprised thirty animals of each gender. Assessments included clinical observations, body weight, and food consumption measures noted periodically during the study. […] Ophthalmic examinations were performed during Weeks 1 and 13. […] In addition, the liver, vagina, and ovaries were identified as potential target tissues and were examined microscopically for all animals from all groups at the primary and recovery necropsies. […] 10 animals of each gender from each group were held to week 30 for a 4-week post-treatment recovery period.\nFor the toxicokinetic studies, there were ten animals of each gender in each group."}, "[3]": {"experiment": "Single dose 300 mg / 450 mg pharmacokinetic, safety and tolerability study in healthy male and female subjects", "details": "for renal clearance, individual subjects: listed as DOV 21,947", "description": "Fourteen subjects, divided equally between males and females, were enrolled in the study and randomized between test article (5/sex) and placebo (2/sex). […] All subjects met the inclusion and exclusion criteria for entry into the study as detailed in the protocol and signed an informed consent form.\nThe subjects were confined to the clinical study site from Day −1 to the morning of Day 2, when they underwent a brief physical examination, clinical laboratory tests, and a physician visit before they were discharged. On Day 7, they reported to the clinical site again and were confined to the site until the morning of Day 9. At that time, they underwent a complete physical examination, clinical laboratory tests, and a physician's visit before they were discharged from the study. All subjects were fasted overnight on Days −1 and 7 from approximately 22:00 to approximately 4 hours post-dose on Days 1 and 8, at which time they received a standard lunch.\nSubjects that received the placebo (2/sex) ingested six identical looking capsules with no drug. […] Capsules on both days were ingested with 240 mL water. […] Samples were collected into lithium heparin-containing Vacutainers® and centrifuged at approximately 3000 rpm to obtain the plasma fraction. The plasma was split into two polypropylene tubes and stored at −20° C. […] The urine volumes were recorded and an aliquot was stored for drug concentration measurements.\nValidated LC/MS/MS assays were used for analyses; the assay range for both analytes in plasma and urine were 5.00 to 2000 ng/mL.\nPlasma concentration-time data for each subject were analyzed with WinNonlin, version 4.1 (Pharsight Corporation, Mountain View, Calif.) using a non-compartmental model. […] Plasma concentrations listed as not detected (ND) or below the lower limit of quantitation (LLOQ) were set to zero. The values of Cmax and Tmax were the observed values for each subject. AUC0-t was determined using the linear trapezoidal rule whenever the concentration data were increasing and the logarithmic trapezoidal rule any time that the concentration data were decreasing. The apparent λz was calculated as the negative slope of the log-linear terminal portion of the blood concentration-time curve using linear regression. To allow for accurate calculation of λz, a minimum of three observations, selected by WinNonlin, was used. The t½ was calculated as ln 2/λz. AUC0-t was extrapolated to infinity (AUC0-∞) as follows: AUC0-∞=AUC0-t+Clast/λz where Clast is the last quantifiable concentration. The apparent oral clearance (CL/F) was calculated as Dose/AUC0-∞. The apparent oral volume of distribution (Vz/F) was calculated as Dose/λz×AUC0-∞. The mean residence time from time zero to infinity (MRT0-∞) was calculated as AUMC0-∞/AUC0-∞."}, "[4]": {"details": "female, Crl:CD-1(ICR) BR, po, 10 mg/kg/day"}, "[5]": {"details": "female, Crl:CD-1(ICR) BR, po, 30 mg/kg/day"}, "[6]": {"details": "female, Crl:CD-1(ICR) BR, po, 100 mg/kg/day"}, "[7]": {"details": "male, Crl:CD-1(ICR) BR, po, 10 mg/kg/day"}, "[8]": {"details": "male, Crl:CD-1(ICR) BR, po, 30 mg/kg/day"}, "[9]": {"details": "male, Crl:CD-1(ICR) BR, po, 100 mg/kg/day"}, "[10]": {"details": "female, Crl:CD(SD)IGS BR, rat, in vivo, 8 mg/kg/day, females, 8 mg/kg/day, Day 0"}, "[11]": {"details": "female, Crl:CD(SD)IGS BR, rat, in vivo, 25 mg/kg/day, females, 25 mg/kg/day, Day 0"}, "[12]": {"details": "female, Crl:CD(SD)IGS BR, rat, in vivo, 25 mg/kg/day, females, 25 mg/kg/day, Day 177"}, "[13]": {"details": "male, Crl:CD(SD)IGS BR, rat, in vivo, 8 mg/kg/day, males, 8 mg/kg/day, Day 0"}, "[14]": {"details": "male, Crl:CD(SD)IGS BR, rat, in vivo, 8 mg/kg/day, males, 8 mg/kg/day, Day 177"}, "[15]": {"details": "male, Crl:CD(SD)IGS BR, rat, in vivo, 25 mg/kg/day, males, 25 mg/kg/day, Day 0"}, "[16]": {"details": "male, Crl:CD(SD)IGS BR, rat, in vivo, 25 mg/kg/day, males, 25 mg/kg/day, Day 177"}, "[17]": {"details": "both, human, plasma, oral, 300 mg"}, "[18]": {"details": "both, human, plasma, oral, 450 mg"}, "[19]": {"details": "both, human, plasma, po, 300 mg"}}, "note": "“And” between values parts separate entries of the source, which are not always exact repeats. Equal entries are not always repeated."}
{"smiles": "Clc1ccc([C@]23CNC[C@H]2C3)cc1Cl", "note": "[amitifadine, (+)-1-(3,4-dichlorophenyl)-3-azabicyclo[3.1.0]hexane]", "values": [{"measurement": "NOAEL at 13 weeks", "setting": "[1]; both sexes, Crl:CD-1(ICR) BR, oral, 13 weeks", "value": 30, "unit": "mg/kg/day"}, {"measurement": "MTD at 13 weeks", "setting": "[1]; both sexes, Crl:CD-1(ICR) BR, po", "value": 100, "unit": "mg/kg/day"}, {"measurement": "anovulatory status (females affected)", "setting": "[1]; female, Crl:CD-1(ICR) BR, 100 mg/kg/day, 13 weeks", "value": "5/10"}, {"measurement": "AUC0-24", "setting": "[1]; [4]", "value": 1980, "unit": "ng·h/mL"}, {"measurement": "AUC(0-t)", "setting": "[1]; [4]", "value": 2540, "unit": "ng·h/mL"}, {"measurement": "Cmax", "setting": "[1]; [4]", "value": 296, "unit": "ng/mL"}, {"measurement": "Tmax", "setting": "[1]; [4]", "value": 1, "unit": "h"}, {"measurement": "AUC0-24", "setting": "[1]; [5]", "value": 7629, "unit": "ng·h/mL"}, {"measurement": "AUC(0-t)", "setting": "[1]; [5]", "value": 7120, "unit": "ng·h/mL"}, {"measurement": "Cmax", "setting": "[1]; [5]", "value": 972, "unit": "ng/mL"}, {"measurement": "Tmax", "setting": "[1]; [5]", "value": 2, "unit": "h"}, {"measurement": "AUC0-24", "setting": "[1]; [6]", "value": 17431, "unit": "ng·h/mL"}, {"measurement": "AUC(0-t)", "setting": "[1]; [6]", "value": 20000, "unit": "ng·h/mL"}, {"measurement": "Cmax", "setting": "[1]; [6]", "value": 2450, "unit": "ng/mL"}, {"measurement": "Tmax", "setting": "[1]; [6]", "value": 1, "unit": "h"}, {"measurement": "ovary/oviduct weights lower", "setting": "[1]; 100 mg/kg/day", "value": "23-28%"}, {"measurement": "AUC0-24", "setting": "[1]; [7]", "value": 2141, "unit": "ng·h/mL"}, {"measurement": "AUC(0-t)", "setting": "[1]; [7]", "value": 2050, "unit": "ng·h/mL"}, {"measurement": "Cmax", "setting": "[1]; [7]", "value": 288, "unit": "ng/mL"}, {"measurement": "Tmax", "setting": "[1]; [7]", "value": 1, "unit": "h"}, {"measurement": "AUC0-24", "setting": "[1]; [8]", "value": 6659, "unit": "ng·h/mL"}, {"measurement": "AUC(0-t)", "setting": "[1]; [8]", "value": 7290, "unit": "ng·h/mL"}, {"measurement": "Cmax", "setting": "[1]; [8]", "value": 704, "unit": "ng/mL"}, {"measurement": "Tmax", "setting": "[1]; [8]", "value": 1, "unit": "h"}, {"measurement": "AUC0-24", "setting": "[1]; [9]", "value": 28952, "unit": "ng·h/mL"}, {"measurement": "AUC(0-t)", "setting": "[1]; [9]", "value": 24100, "unit": "ng·h/mL"}, {"measurement": "Cmax", "setting": "[1]; [9]", "value": 2850, "unit": "ng/mL"}, {"measurement": "Tmax", "setting": "[1]; [9]", "value": 1, "unit": "h"}, {"measurement": "NOAEL at 26 weeks", "setting": "[2]; both sexes, Crl:CD(SD)IGS BR, rat, in vivo, oral gavage, 26 weeks", "value": 8, "unit": "mg/kg/day"}, {"measurement": "exposure in female vs male rats", "setting": "[2]; equivalent dosages", "value": "≤ 2", "unit": "fold"}, {"measurement": "liver metabolic enzyme induction", "setting": "[2]; female rats, 25 mg/kg/day, 26 weeks", "value": "inducer of CYP1A, CYP2B, CYP2E, CYP3A, and CYP4A"}, {"measurement": "Tmax", "setting": "[2]; [10]", "value": 1, "unit": "h"}, {"measurement": "AUC(0-t)", "setting": "[2]; [10]", "value": 9970, "unit": "ng·h/mL"}, {"measurement": "Tmax", "setting": "[2]; female, Crl:CD(SD)IGS BR, rat, in vivo, 8 mg/kg/day, females, 8 mg/kg/day, Day 177", "value": 2, "unit": "h"}, {"measurement": "Cmax", "setting": "[2]; [11]", "value": 2630, "unit": "ng/mL"}, {"measurement": "Tmax", "setting": "[2]; [11]", "value": 1, "unit": "h"}, {"measurement": "AUC(0-t)", "setting": "[2]; [11]", "value": 23800, "unit": "ng·h/mL"}, {"measurement": "Cmax", "setting": "[2]; [12]", "value": 3500, "unit": "ng/mL"}, {"measurement": "Tmax", "setting": "[2]; [12]", "value": 1, "unit": "h"}, {"measurement": "AUC(0-t)", "setting": "[2]; [12]", "value": 29700, "unit": "ng·h/mL"}, {"measurement": "Tmax", "setting": "[2]; female, Crl:CD(SD)IGS BR, rat, in vivo, […], females, […], Day 0", "value": 2, "unit": "h"}, {"measurement": "Tmax", "setting": "[2]; female, Crl:CD(SD)IGS BR, rat, in vivo, […], females, […], Day 177", "value": 1, "unit": "h"}, {"measurement": "AUC(0-t)", "setting": "[2]; female, Crl:CD(SD)IGS BR, rat, plasma, 8 mg/kg/day, females, 8 mg/kg/day, Day 177", "value": 11100, "unit": "ng·h/mL"}, {"measurement": "mean ovary/oviduct weights higher", "setting": "[2]; females, 25 mg/kg/day", "value": 12, "unit": "%"}, {"measurement": "mean body weight lower than control", "setting": "[2]; females, 25 mg/kg/day", "value": 10, "unit": "%"}, {"measurement": "mean cumulative body weight gain lower", "setting": "[2]; females, 25 mg/kg/day", "value": 14, "unit": "%"}, {"measurement": "liver metabolic enzyme induction", "setting": "[2]; male rats, 25 mg/kg/day, 26 weeks", "value": "inducer of CYP1A, CYP2B, and CYP2E"}, {"measurement": "Tmax", "setting": "[2]; [13]", "value": 1, "unit": "h"}, {"measurement": "AUC(0-t)", "setting": "[2]; [13]", "value": 5380, "unit": "ng·h/mL"}, {"measurement": "Cmax", "setting": "[2]; [14]", "value": 954, "unit": "ng/mL"}, {"measurement": "Tmax", "setting": "[2]; [14]", "value": 1, "unit": "h"}, {"measurement": "Cmax", "setting": "[2]; [15]", "value": 2600, "unit": "ng/mL"}, {"measurement": "Tmax", "setting": "[2]; [15]", "value": 1, "unit": "h"}, {"measurement": "AUC(0-t)", "setting": "[2]; [15]", "value": 18100, "unit": "ng·h/mL"}, {"measurement": "Cmax", "setting": "[2]; [16]", "value": 2600, "unit": "ng/mL"}, {"measurement": "AUC(0-t)", "setting": "[2]; [16]", "value": 17800, "unit": "ng·h/mL"}, {"measurement": "Tmax", "setting": "[2]; male, Crl:CD(SD)IGS BR, rat, in vivo, […], males, […], Day 0", "value": 1, "unit": "h"}, {"measurement": "Tmax", "setting": "[2]; male, Crl:CD(SD)IGS BR, rat, in vivo, […], males, […], Day 177", "value": 1, "unit": "h"}, {"measurement": "AUC(0-t)", "setting": "[2]; male, Crl:CD(SD)IGS BR, rat, plasma, 8 mg/kg/day, males, 8 mg/kg/day, Day 177", "value": 7130, "unit": "ng·h/mL"}, {"measurement": "mean testes weights higher", "setting": "[2]; males, 25 mg/kg/day", "value": 9.5, "unit": "%"}, {"measurement": "mean body weight lower than control", "setting": "[2]; males, 25 mg/kg/day", "value": 12, "unit": "%"}, {"measurement": "mean cumulative body weight gain lower", "setting": "[2]; males, 25 mg/kg/day", "value": 18, "unit": "%"}, {"measurement": "NOEL", "setting": "[2]; oral gavage, 26 weeks", "value": 2.5, "unit": "mg/kg/day"}, {"measurement": "ingested dose in urine (0-24 hr)", "setting": "[3]; 300 mg", "value": 0.4, "unit": "%"}, {"measurement": "renal clearance, individual subjects", "setting": "[3]; 300 mg single oral dose", "value": "40.6 mL/h and 62.1 mL/h and 32.1 mL/h and 47.7 mL/h and 39.2 mL/h and 66.6 mL/h and 91.7 mL/h and 47.3 mL/h and 76.4 mL/h"}, {"measurement": "ingested dose in urine (0-24 hr)", "setting": "[3]; 450 mg", "value": 0.3, "unit": "%"}, {"measurement": "renal clearance, individual subjects", "setting": "[3]; 450 mg single oral dose", "value": "42.2 mL/h and 31.9 mL/h and 25.4 mL/h and 22.3 mL/h and 40.1 mL/h and 34.1 mL/h and 32.1 mL/h and 79.2 mL/h and 33.7 mL/h and 47.3 mL/h"}, {"measurement": "oral clearance", "setting": "[3]; 300 and 450 mg", "value": "13.2 to 13.6", "unit": "L/h"}, {"measurement": "Cmax", "setting": "[3]; [17]", "value": 3370, "unit": "ng/mL"}, {"measurement": "Tmax", "setting": "[3]; [17]", "value": 2.15, "unit": "h"}, {"measurement": "Cmax", "setting": "[3]; [18]", "value": 5110, "unit": "ng/mL"}, {"measurement": "MRT", "setting": "[3]; [18]", "value": "6.3 to 6.4", "unit": "h"}, {"measurement": "Tmax", "setting": "[3]; [18]", "value": 2.43, "unit": "h"}, {"measurement": "half-life", "setting": "[3]; both, human, plasma, oral, 450 mg, elimination half-life, 300 and 450 mg", "value": "~4", "unit": "h"}, {"measurement": "AUC(0-inf)", "setting": "[3]; [19]", "value": 19700, "unit": "ng·h/mL"}, {"measurement": "AUC(0-t)", "setting": "[3]; [19]", "value": 19400, "unit": "ng·h/mL"}, {"measurement": "Cmax", "setting": "[3]; [19]", "value": 3370, "unit": "ng/mL"}, {"measurement": "MRT inf", "setting": "[3]; [19]", "value": 6.29, "unit": "h"}]}
